Experimental data: patent publication US9802957B2, “Processes of preparing a JAK1 inhibitor and new forms thereto” (Incyte Corporation, priority 2014, dated 2017)

Legend:
[1] = target: T1, human JAK2 (a.a. 828-1132) (Homo sapiens, UniProt O60674); test: In vitro JAK kinase assay (HTRF), JAK2; assay type: biochemical; conditions: 1 mM ATP
T1 construct: JAK2 (a.a. 828-1132); made in house; host or cells: insect cells (baculovirus)
Procedure: (§1) Compounds herein were tested for inhibitory activity of JAK targets according to the following in vitro assay described in Park et al., Analytical Biochemistry 1999, 269, 94-104. The catalytic domains of human JAK1 (a.a. 837-1142), JAK2 (a.a. 828-1132) and JAK3 (a.a. 781-1124) were expressed using baculovirus in insect cells and purified. The catalytic activity of JAK1, JAK2 or JAK3 was assayed by measuring the phosphorylation of a biotinylated peptide. The phosphorylated peptide was detected by homogenous time resolved fluorescence (HTRF). IC50s of compounds were measured for each kinase in the 40 μL, reactions that contain the enzyme, ATP and 500 nM peptide in 50 mM Tris (pH 7.8) buffer with 100 mM NaCl, 5 mM DTT, and 0.1 mg/mL (0.01%) BSA. For the 1 mM IC50 measurements, ATP concentration in the reactions was 1 mM. Reactions were carried out at room temperature for 1 hour and then stopped with 20 μL 45 mM EDTA, 300 nM SA-APC, 6 nM Eu-Py20 in assay buffer (Perkin Elmer, Boston, Mass.). Binding to the Europium labeled antibody took place for 40 minutes and HTRF signal was measured on a PHERAi star plate reader (BMG, Cary, N.C.).

[2] = target: T2, human JAK1 (a.a. 837-1142) (Homo sapiens, UniProt P23458); test: In vitro JAK kinase assay (HTRF), JAK1; assay type: biochemical; conditions: 1 mM ATP
T2 construct: The catalytic domains of human JAK1 (a.a. 837-1142); made in house; host or cells: insect cells (baculovirus)
Procedure: as §1

[3] = system: human JAK1 (a.a. 837-1142); test: In vitro JAK kinase assay (HTRF), JAK1; assay type: biochemical
Procedure: as §1

[4] = Dynamic Vapor Sorption (DVS) study; assay type: physicochemical
Procedure: Some of the compounds prepared were analyzed using Dynamic Vapor Sorption (DVS). Typical DVS conditions are as follows: SGA-100 Symmetric Vapor Sorption Analyzer from VTI Corporation. The moisture uptake profile was completed in four cycles in 10% relative humidity (RH) increments with the first adsorption from 25% to 95% RH, followed by desorption in 10% increments from 95% to 5% RH. The equilibration criteria were 0.0050 wt % in 5 minutes with a maximum equilibration time of 180 minutes; Data logging interval: 2.00 min or 0.0100 wt %. All adsorption and desorption were performed at room temperature (25° C.). No pre-drying step was applied.
A Dynamic Vapor Sorption (DVS) study was conducted on the compound of Example 9 to monitor the hydroscopicity, hydrate formation and dehydration, as well as solid form transformation. The moisture uptake profile was completed in four cycles in 10% relative humidity (RH) increments with the first adsorption from 25% to 95% RH, followed by desorption in 10% increments from 95% to 5% RH. The equilibration criteria were as follows: 0.0050 wt % in 5 minutes with a maximum equilibration time of 180 minutes. All adsorption and desorption were performed at room temperature (25° C.). No pre-drying step was applied for the sample.

Humidity Chamber Study B = assay type: physicochemical; conditions: 30° C., 90% relative humidity, 7 days
Procedure: Temperature: 30° C.; Relative humidity: 90%; Time: 7 days.
The compound of Example 9 was placed in a humidity chamber set at 30° C. and 90% relative humidity (RH) for 7 days. […] The XRPD patterns of the 30° C./90% RH sample corresponded to the hydrate form obtained from an aqueous suspension of the anhydrous crystalline free base drug substance.

Humidity Chamber Study A = assay type: physicochemical; conditions: 40° C., 75% relative humidity, 5 days
Procedure: Temperature: 40° C.; Relative humidity: 75%; Time: 5 days.
The compound of Example 9 was placed in a humidity chamber set at 40° C. and 75% relative humidity for 5 days.

T1 sequence (O60674 828-1132): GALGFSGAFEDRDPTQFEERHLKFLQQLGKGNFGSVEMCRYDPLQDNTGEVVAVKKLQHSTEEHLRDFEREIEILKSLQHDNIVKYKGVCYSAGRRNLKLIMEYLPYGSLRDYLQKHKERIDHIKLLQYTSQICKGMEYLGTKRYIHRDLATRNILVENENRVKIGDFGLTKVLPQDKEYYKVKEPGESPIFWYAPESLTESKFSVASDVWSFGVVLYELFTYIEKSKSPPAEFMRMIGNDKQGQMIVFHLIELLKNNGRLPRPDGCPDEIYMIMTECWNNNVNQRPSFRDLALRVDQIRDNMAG
T2 sequence (P23458 849-1154): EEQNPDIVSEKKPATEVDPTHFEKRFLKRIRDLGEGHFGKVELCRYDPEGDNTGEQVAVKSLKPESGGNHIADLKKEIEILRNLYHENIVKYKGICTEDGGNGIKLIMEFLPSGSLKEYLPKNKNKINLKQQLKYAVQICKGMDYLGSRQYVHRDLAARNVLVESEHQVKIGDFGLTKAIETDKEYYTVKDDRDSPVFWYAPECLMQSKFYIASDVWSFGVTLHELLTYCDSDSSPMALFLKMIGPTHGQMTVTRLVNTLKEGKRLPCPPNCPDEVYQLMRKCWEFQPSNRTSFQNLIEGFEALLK

C[C@@H](O)c1nc2cnc3ccsc3c2n1[C@H]1CC[C@H](CC#N)OC1 [Formula Ia, 2-((2R,5S)-5-(2-((R)-1-hydroxyethyl)-1H-imidazo[4,5-d]thieno[3,2-b]pyridin-1-yl)tetrahydro-2H-pyran-2-yl)acetonitrile]
IC50 [1]: ≤ 1000 nM | IC50 [2]: ≤ 100 nM | JAK2/JAK1 ratio ([3]; 1 mM ATP, ratio of IC50s): > 10 | JAK2/JAK1 IC50 ratio ([3]; general statement of selectivity for JAK1 over JAK2): > 10

C[C@@H](O)c1nc2cnc3ccsc3c2n1[C@H]1CC[C@H](CC#N)OC1 [Example 9, 2-((2R,5S)-5-(2-((R)-1-hydroxyethyl)-1H-imidazo[4,5-d]thieno[3,2-b]pyridin-1-yl)tetrahydro-2H-pyran-2-yl)acetonitrile]
Water absorption of the anhydrous form ([4]; DVS, 25° C., four cycles, 5% to 95% RH): slow below 85% RH and fast above 85% RH | Solid form after DVS cycle 4 ([4]; DVS, 25° C., XRPD before and after): fully converted to the hydrate form | Behaviour under ambient storage conditions ([4]; ambient storage): slowly absorb water and convert to hydrate form | Solid form by XRPD after humidity chamber (Humidity Chamber Study B): converted to the crystalline hydrate form | Water content by KF after humidity chamber (Humidity Chamber Study B): 4.72% | Weight loss observed by TGA after humidity chamber (Humidity Chamber Study B): 5.05% | Solid form by XRPD after humidity chamber (Humidity Chamber Study A): converted to the crystalline hydrate form | Water content by KF after humidity chamber (Humidity Chamber Study A): 4.6% | Weight loss observed by TGA after humidity chamber (Humidity Chamber Study A): 5.01%

C[C@@H](O)c1nc2cnc3ccsc3c2n1[C@H]1CC[C@H](CC#N)OC1 [Example 10, 2-((2R,5S)-5-(2-((R)-1-hydroxyethyl)-1H-imidazo[4,5-d]thieno[3,2-b]pyridin-1-yl)tetrahydro-2H-pyran-2-yl)acetonitrile monohydrate]
Dehydration process from the hydrate to the anhydrous form ([4]; DVS desorption, 25° C.): very slow, even at 5% RH | Physical stability to humidity ([4]; DVS, 25° C.): physically stable in a wide range of humidity conditions
